The source of these data is ChEMBL document CHEMBL1157539, “Thousands of chemical starting points for antimalarial lead identification” (Nature, 2010).

For this experiment, the system named is Plasmodium falciparum. As to the kind of experiment: GSK_TCMDC: Inhibition of Plasmodium falciparum 3D7 in whole erythrocytes, using parasite LDH activity as an index of growth. The following applies: Plasmodium falciparum, 3D7. The experiment is classed as functional, organism-based.

For `CN1CCC(C(=O)N(Cc2ccc(-c3ccc(CNCCc4ccc(S(C)(=O)=O)cc4)cn3)cc2)C2CCN(Cc3ccccc3)CC2)CC1`, the XC50 was 673 nM.

`O=C(/C=C/c1ccc(Cl)c(Cl)c1)N1CCC(CN2CCC(c3c[nH]c4ccccc34)C(O)C2)CC1` (configuration not stated) displayed an XC50 of 809 nM. For `N#Cc1ccc(N(CCOC(=O)c2ccc(Br)s2)Cc2ccccc2C(F)(F)F)cc1C(F)(F)F`, the XC50 is 1070 nM. In turn, `COc1cccc(C2=CC(C)(C)Oc3cc(OCCN(C)C)ccc32)c1` gave an XC50 of 794 nM. On to `CN(c1ccc(NC(=O)c2cccc(F)c2)cc1)C1CCCN(Cc2cccc(O)c2)C1` (configuration not stated), for which the XC50 turned out to be 1300 nM. For `COCCNCc1cccc(-c2ccccc2CN(C(=O)Nc2ccccc2)C2CCN(Cc3ccccc3)CC2)c1`, the XC50 is 914 nM. As for `O=S(=O)(NCCCN1CCOCC1)c1ccc2nccc(Nc3ccc(Oc4ccccc4)cc3)c2c1`, the figure is 855 nM; as for `COCCOc1nc(N)nc2ncc(Cc3cc(OC)ccc3OC)c(C)c12`, 426 nM. For `CC(C)(CNC(=O)[C@@H]1CCCN(Cc2ccc(Cl)cc2)C1)c1nc(-c2ccc(Cl)c(O)c2)c(-c2ccncc2)[nH]1` the value was 941 nM; for `O=C(Nc1ccccc1O)c1ccc(Oc2cccc(C(=O)Nc3ccccc3O)c2)cc1`, 799 nM; for `CCC(C)c1ccc(NC(=O)Nc2ccnc3ccccc23)cc1` (configuration not stated), 625 nM. With `Cc1cccc(-n2c(Nc3ccc(C)c(Cl)c3)nc3ccc(S(=O)(=O)NC(C)C(C)C)cc32)c1` (configuration not stated), the XC50 is 648 nM. As for `COc1ccc2nccc([C@@H](O)CN3CCC(NC(=O)c4cc5ccccc5[nH]4)CC3)c2c1`, the figure is 969 nM; as for `CC(C)CCCC(C)(C)NC[C@@H](O)[C@H](Cc1ccccc1)NC(=O)c1cccc(CCC2CC2)c1`, 796 nM. Regarding `CCN(CC)CCN(Cc1ccc(-c2ccc(C(F)(F)F)cc2)cc1)C(=O)Cn1c(CCc2cccc(C#N)c2)nc(=O)c2ccccc21`, the XC50 amounted to 768 nM. `O=C(N[C@H](CC1CCCCC1)C(=O)NC1CCCc2ccccc21)c1ccc(O)c(-c2cccc([N+](=O)[O-])c2)c1` (some centres not stated) came in with an XC50 of 610 nM. Consider `CC(=O)c1ccc(-c2ccccc2)s1`, for which the XC50 stood at 1080 nM. The compound `O=C(NCCN1CCCC1)c1ccc(-c2ccc(-c3nc4ccccc4[nH]3)s2)cc1` gave an XC50 of 938 nM.

`COc1ccc(CCN(Cc2cccs2)C(=O)c2cc3sccc3n2C)cc1OC` showed an XC50 of 349 nM.

On to `CC(Cc1ccc(C(C)(C)C)cc1)NCC(O)c1ccccc1` (configuration not stated), for which the XC50 was determined as 1810 nM. As for `CCOc1ccc(/C=C/C(=O)Nc2cccc3c2CCN(C)C3)cc1`, the figure is 1110 nM; as for `COc1cccc2c(C)cc(NCc3ccc(Cl)cc3)nc12`, 860 nM; as for `CCCNCc1ccc(-c2ccc(CN(Cc3ccc4c(c3)OCO4)C(=O)[C@H]3CCCO3)cc2)nc1`, 811 nM. As for `CCC(=O)OC(CCN(CC)CC)(c1ccccc1)c1ccccc1`, the figure is 369 nM. For `Cc1nc(C)c(-c2ccc(C(F)(F)F)cc2)c(O)c1Br`, the XC50 came to 142 nM.

`Cc1ccc2c(=NN=Cc3ccc(Cl)cc3)cc(C)[nH]c2c1` gave an XC50 of 945 nM. With `CCCCNC[C@@H](O)[C@H](Cc1ccccc1)NC(=O)c1cc2c3c(c1)c(CC)cn3CCS(=O)(=O)N2C`, the XC50 was found to be 196 nM. Regarding `CCC[C@@H]([C@@H](CC(C)C)C(=O)N[C@@H](CCC/N=C(/N)NS(C)(=O)=O)C(=O)Nc1nccs1)N(O)C=O`, the XC50 was 941 nM.

Turning to `CCCCNCc1ccc(-c2nc(CN(CCCn3ccnc3)C(=O)NC3CC3c3ccccc3)cs2)cc1` (configuration not stated), the XC50 is 744 nM. As to `CC(C)(C)OC(=O)NCc1ccc(Nc2nnc(-c3cccc(OCC(=O)NCc4cc(C(F)(F)F)cc(C(F)(F)F)c4)c3)o2)cc1`, the XC50 is 832 nM.

On to `N#Cc1ccc(N/C(=N\c2cccc(Cl)c2Cl)NC2Cc3ccccc3C2)c(O)c1`, for which the XC50 was determined as 832 nM. `CC(O)CNc1nc2ccccc2n1CC(=O)Nc1cccc(C(=O)Nc2cccc(C(F)(F)F)c2)c1` (configuration not stated) came in with an XC50 of 103 nM. As for `O=c1cc(NCCCNCc2cccc3c2OC(F)(F)O3)[nH]c2ccccc12`, the XC50 stood at 947 nM. In turn, `COc1ccc(NC(=O)Nc2ccc(Nc3nc(C)cc(N4CCCC4)n3)cc2)cc1` had an XC50 of 135 nM. As for `COc1ccc(NC(=O)c2ccc(OCCCCCCCOc3ccc(C(=O)Nc4ccc(OC)c(N5CCN(C)CC5)c4)cc3)cc2)cc1N1CCN(C)CC1`, the figure is 598 nM; as for `COC(=O)CCCCOc1c(OC)cc(Cc2cnc(N)nc2N)cc1OC`, 39.3 nM; as for `Cc1cc2ncn(-c3ccnc(N4CCN(CCCN5CCCC5)CC4)n3)c2cc1C`, 828 nM. Turning to `CC(C)CCN1CCCN(Cc2cccc(NC(=O)c3cc4ccccc4s3)c2)CC1`, the XC50 turned out to be 917 nM. `CCOc1cc(Cc2cnc(N)nc2N)cc(OCC)c1OCCCCC(=O)OC`: the XC50 is 44.8 nM. `COc1cc(NC(=O)Nc2ccc([N+](=O)[O-])cc2OC)c(OC)cc1Cl` had an XC50 of 1470 nM. As for `O=C(/C=C/c1ccc(Cl)c(Cl)c1)NC1CCN(CCCNC(=O)c2cccc(Cl)c2)CC1`, the figure is 659 nM; as for `CN(C)CCNCc1ccc(-c2cccc(-c3nc4ccccc4[nH]3)c2)cc1`, 717 nM. For `CCOC(=O)c1c(NC(=O)c2ccccc2)sc2c(O)c(CNC3CCCCC3)ccc12` the value was 752 nM; for `CCC(C)CN1C(=O)C(c2ccccc2)(c2ccccc2)N=C1N` (configuration not stated), 712 nM; for `COc1ccc(NC(=O)Nc2ccc(C)c(-c3ccc(C(=O)Nc4ccncc4)cc3)c2)cc1`, 572 nM. In turn, `Cc1ccc2c(=NN=Cc3cccc(F)c3)cc(C)[nH]c2c1` returned an XC50 of 857 nM. In the case of `Cc1ccccc1Nc1nc(NCc2ccccc2)nc2ccccc12`, the XC50 is 1020 nM. As for `Cc1cc(-c2cccc(CNCCc3ccc(Cl)cc3)c2)cnc1N`, the figure is 1100 nM. For `Cc1nc(NC(=N)N)nc2cc3c(cc12)CCC3`, the XC50 was determined as 916 nM. For `O=C(NCCCN1CCN(c2cccc(Cl)c2)CC1)c1ccc(-c2nc3cc(Cl)c(Cl)cc3[nH]2)c(F)c1` the value was 826 nM; for `CCOc1c(C)cc(C(F)(F)F)cc1CNCCCNc1cc(=O)c2ccccc2[nH]1`, 161 nM. `COc1cc(NC(=O)Nc2ccnc3ccccc23)cc(OC)c1` displayed an XC50 of 469 nM.

`Cc1cccc2nc(-c3cccc(-c4cccc(C(=O)NCc5nccn5C)c4)c3)[nH]c12`: the XC50 came to 528 nM. Compound `COc1ccc2nccc([C@@H](O)CN3CCC(NC(=O)c4ccc(-c5ccccc5)s4)CC3)c2c1` displayed an XC50 of 310 nM.

As for `NCc1cccc(-c2cccc(CN(C(=O)Nc3ccccc3)C3CCN(Cc4ccccc4)CC3)c2)c1`, the XC50 came to 829 nM. With `CN1CCN(Cc2ccc(-c3ccc4c(Nc5ccc(Oc6ccccn6)cc5)ccnc4c3)o2)CC1`, the XC50 came to 145 nM.

The compound `Nc1nccc2ccc(-c3ccc(NC(=O)Nc4cc(C(F)(F)F)ccc4F)cc3)cc12` registered an XC50 of 86.3 nM.

Take `NCC1CCCN1Cc1ccc(-c2ccc(-c3nc4cc(C(F)(F)F)ccc4[nH]3)s2)cc1` (configuration not stated): the XC50 was determined as 794 nM. Turning to `Cn1cc(C2CCN(CCCCNC(=O)c3ccc(-c4ccc(C(F)(F)F)cc4)c(CO)c3)CC2)c2ccccc21`, the XC50 came to 1000 nM. For `Cc1cc(N)c2cc(NC(=O)/C=C/c3ccccc3)ccc2n1` the value was 757 nM. `c1cc(Nc2nccc(-c3cnn4ncccc34)n2)cc(-c2cnco2)c1` had an XC50 of 692 nM. In turn, `COc1ccccc1-n1ccnc1SCC(=O)Nc1cc(C(F)(F)F)ccc1Cl` came in with an XC50 of 9.3 nM. For `Nc1ncnc2c1ncn2C(CO)Cc1ccc(O)cc1` (configuration not stated) the value was 1030 nM; for `Cc1cccc(C(=O)N2CCN(Cc3cccc(NC(=O)c4cccs4)c3)CC2)c1`, 221 nM. `Cc1sc(CNCCCNc2cc(=O)c3ccccc3[nH]2)cc1Br` yielded an XC50 of 764 nM. For `CC(CCCCC(=O)Nc1ccc(CC(C)NCCc2cccc(Cl)c2)cc1)NCCc1cccc(Cl)c1` (configuration not stated) the value was 1010 nM; for `CN(c1cc(NC(=O)c2cccs2)ccn1)C1CCN(Cc2cccc(F)c2)CC1`, 676 nM; for `CCc1ccc(O)c(-c2cc(C(=O)Nc3cccnc3)[nH]n2)c1`, 689 nM. For `COc1ccc(-c2ccc(NC(=O)c3ccc(C#N)cc3)cc2)cc1CN(C)CCN(C)C` the value was 663 nM. Take `CCCC(=O)c1cnc2c(I)cccc2c1Nc1ccccc1C`: the XC50 turned out to be 1160 nM.

In turn, `CCCC(=O)Nc1ccc(Cl)c(NC(=O)COc2cc(C)ccc2C(C)C)c1` came in with an XC50 of 933 nM. As for `CC(C)(C)SC1SC(SC(C)(C)C)C(OC(=O)c2ccccc2)C(OC(=O)c2ccccc2)C1OC(=O)c1ccccc1` (configuration not stated), the figure is 937 nM; as for `Cc1ccc(CON2C(=N)N=C(N)NC2(C)C)cc1C`, 3.2 nM. `CCCC[C@H](NC(=O)OC(C)(C)C)C(=O)Nc1ccc(Cc2ccc(NC(=O)[C@H](CCCC)NC(=O)OC(C)(C)C)cc2)cc1` displayed an XC50 of 733 nM.

In the case of `Cc1cc(=O)c(-c2ccc(Oc3cccc(OC(F)(F)F)c3)cc2)c(C)[nH]1`, the XC50 stood at 202 nM. `COc1ccc2ncc(F)c([C@H](O)CN3CCC(NCc4ccc5c(c4)OCCO5)CC3)c2c1` registered an XC50 of 152 nM. As for `COc1ccc2c(=O)c(I)c(C)[nH]c2c1`, the figure is 440 nM. The compound `CN(C)c1ccc(/N=C2/N/C(=N/c3ccc(N(C)C)cc3)c3ccccc32)cc1` returned an XC50 of 848 nM. The compound `COc1cc2c(cc1S(=O)(=O)c1ccc(NC(=O)c3cccc(C(F)(F)F)c3)cc1)CCN(C)CC2` displayed an XC50 of 1380 nM.

On to `Cc1ccc(C(=O)NCC2CCN(c3ccc(C(F)(F)F)cc3NC(=O)c3ccco3)CC2)cn1`, for which the XC50 worked out at 782 nM. As for `COc1ccc2nccc([C@@H](O)CN3CCC(NC(=O)Cc4cccc5c(Br)cccc45)CC3)c2c1`, the figure is 796 nM.

Compound `Cc1cc(N2Cc3ccccc3C2)nc(Nc2ccc(S(=O)(=O)N3CCOCC3)cc2)n1` showed an XC50 of 1110 nM. For `COc1ccc(C2CCN(CCCCNC(=O)c3ccc(NC(=O)c4ccc(Cl)cc4)cc3)CC2)c(C)c1` the value was 747 nM.

Consider `Cc1cc(N[C@@H](Cc2ccccc2)C(=O)NCCc2ccccc2)nc(NCCc2ccc(F)cc2)n1`, for which the XC50 is 661 nM. As for `O=C(Nc1ccc(Cl)cc1)Nc1cccc(-c2cc(CNCCc3ccccc3)oc2-c2ccncc2)c1`, the figure is 279 nM. For `CCc1ccc(CN2CCC(CNC(=O)c3cc(-c4ccccc4F)cs3)C2)cc1` (configuration not stated) the value was 899 nM; for `COc1ccc(-c2ccc(NC(=O)c3cccc(C#N)c3)cc2)cc1CN1CCN(C)CC1`, 713 nM.
